# From patent US5238962A, “Benzamide derivatives” (Hoffmann-La Roche Inc., priority 1983, dated 1993)
# Test system: not listed separately
# Assay: toxicity (LD50, p.o. in mice)
# Details: mouse, in vivo, po
row,Compound,LD50
1,"NCCNC(=O)c1ccc(Cl)cc1Cl [N-(2-Aminoethyl)-2,4-dichlorobenzamide, N-(2-aminoethyl)-2,4-dichlorobenzamide]",625 to 1250 mg/kg
2,"NCCNC(=O)c1ccc(Cl)c(Cl)c1 [N-(2-Aminoethyl)-3,4-dichlorobenzamide, N-(2-aminoethyl)-3,4-dichlorobenzamide]",1000 to 2000 mg/kg
3,NCCNC(=O)c1ccc(Br)cc1 [N-(2-Aminoethyl)-p-bromobenzamide],500 to 1000 mg/kg
4,NCCNC(=O)c1ccc(Cl)cc1 [N-(2-Aminoethyl)-p-chlorobenzamide],1000 to 2000 mg/kg
5,NCCNC(=O)c1ccc(F)cc1 [N-(2-Aminoethyl)-p-fluorobenzamide],> 5000 mg/kg
6,NCCNC(=O)c1ccccc1 [N-(2-Aminoethyl)benzamide],> 5000 mg/kg

# Target: T1, monoamine oxidase (MAO) (Rattus norvegicus, UniProt P19643)
# T1 construct: from tissue; host or cells: rat brain and liver homogenates
# T1 sequence (P19643 1-520): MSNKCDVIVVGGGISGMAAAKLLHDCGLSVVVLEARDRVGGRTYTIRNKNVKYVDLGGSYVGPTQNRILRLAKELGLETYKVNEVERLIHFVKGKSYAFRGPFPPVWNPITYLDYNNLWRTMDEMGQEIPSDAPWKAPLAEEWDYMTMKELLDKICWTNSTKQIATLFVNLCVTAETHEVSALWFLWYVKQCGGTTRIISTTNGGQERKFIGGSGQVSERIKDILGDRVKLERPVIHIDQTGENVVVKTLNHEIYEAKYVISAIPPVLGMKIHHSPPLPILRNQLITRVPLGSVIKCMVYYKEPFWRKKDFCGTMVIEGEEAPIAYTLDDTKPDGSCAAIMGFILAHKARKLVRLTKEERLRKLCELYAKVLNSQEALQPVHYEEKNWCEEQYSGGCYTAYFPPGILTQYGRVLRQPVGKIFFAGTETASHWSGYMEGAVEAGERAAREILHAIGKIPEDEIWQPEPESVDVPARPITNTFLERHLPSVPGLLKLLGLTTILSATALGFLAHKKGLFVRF
# Assay: MAO inhibiting activity in homogenates of brain and liver of rats after oral administration (phenethylamine as substrate)
# Assay type: in vivo
# Details: 2 h, p.o. in rats, killed two hours after administration, homogenates of the brain and the liver, phenethylamine 2.10^-5 mol.1^-1 as substrate
# Protocol: The MAO inhibiting activity of the compounds of formula I and their pharmaceutically acceptable addition salts can be determined using standard methods. Thus, the substances to be tested were administered orally to rats. Two hours thereafter the animals were killed and the MAO inhibiting activity was measured in homogenates of the brain and the liver according to the method described in Biochem. Pharmacol. 12 (1963) 1439-1441, but using phenethylamine (2.10^-5 mol. 1^-1) in place of tyramine as the substrate.
row,Compound,ED50
1,"NCCNC(=O)c1ccc(Cl)cc1Cl [N-(2-Aminoethyl)-2,4-dichlorobenzamide, N-(2-aminoethyl)-2,4-dichlorobenzamide]",1.5 µmol/kg
2,"NCCNC(=O)c1ccc(Cl)c(Cl)c1 [N-(2-Aminoethyl)-3,4-dichlorobenzamide, N-(2-aminoethyl)-3,4-dichlorobenzamide]",10.3 µmol/kg
3,NCCNC(=O)c1ccc(Br)cc1 [N-(2-Aminoethyl)-p-bromobenzamide],4 µmol/kg
4,NCCNC(=O)c1ccc(F)cc1 [N-(2-Aminoethyl)-p-fluorobenzamide],4 µmol/kg
5,NCCNC(=O)c1ccccc1 [N-(2-Aminoethyl)benzamide],20 µmol/kg
